# According to publication PMC8977229 (Journal of molecular biology, 2022):
# Biological target: T1, FraR (Salmonella enterica, UniProt Q8ZLC9)
# T1 sequence (Q8ZLC9 1-239): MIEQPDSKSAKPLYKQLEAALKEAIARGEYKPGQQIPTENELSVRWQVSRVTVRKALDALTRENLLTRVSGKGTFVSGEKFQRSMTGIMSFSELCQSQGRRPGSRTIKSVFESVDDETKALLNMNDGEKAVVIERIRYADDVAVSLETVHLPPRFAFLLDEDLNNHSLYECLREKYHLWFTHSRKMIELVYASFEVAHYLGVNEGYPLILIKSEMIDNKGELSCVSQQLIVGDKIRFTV
# Experiment: online buffer exchange native MS titration
# Type: binding
smiles,measurement,value
"O=C(O)C[C@H](NCC(=O)[C@@H](O)[C@H](O)[C@H](O)COP(=O)(O)O)C(=O)O [6-P-F-Asp, 6-phosphofructose-aspartate]",Kd,3.8 ± 0.6 µM
